Assay results taken from US20050079529A1, “Very large scale immobilized polymer synthesis” (Affymetrix, INC., priority 1989, published 2005).
Square brackets hold non-standard residues; d marks the D form. Ends that are not written are not given here.

Experiments:
[1] = test system: anti-dynorphin B monoclonal antibody; test: Dynorphin B deletion peptide array, relative binding of anti-dynorphin B monoclonal antibody by fluorescence intensity
Method: The binding epitope on dynorphin B for the anti-dynorphin B antibody described above was determined by deleting various amino acids and combinations of amino acids from the overall sequence of dynorphin B. The peptides containing these various deletions were prepared on a substrate by the general protection-deprotection methods described above. Then the substrate was exposed to the anti-dynorphin B monoclonal antibody and a fluorescence image was produced as shown in FIG. 33.
From the intensity distribution contained in this plot, it was possible to determine the relative binding affinity to various of the peptides.

[2] = test system: anti-dynorphin B murine monoclonal antibody; test: 4×10 peptide array related to dynorphin B screened with anti-dynorphin B antibody and labeled goat anti-mouse antibody; assay type: binding; settings: FIG. 30
From the text: An array of peptides synthesized using the general protection-deprotection technology outlined above. Referring to FIG. 30, the following peptides were synthesized: row 1=RXFKVVT; row 2=RQXFKVVT; row 3=RQXKVVT; and row 4=RXKVVT. In each row, “X” represents a group of four amino acids, which were simultaneously added to the immobilized peptide. The particular group of amino acids used as “X” on a given block are identified by column number as follows: column 1 [G,A,R,K in a ratio 1:1:1:1], column 2 [null]; column 3 [C,M,S,T in the ratio 1:1:1:5]; column 4 [null]; column 5 [F,Y,W,H in the ratio 1:1:1:1]; column 6 [null]; column 7 [D,E,N,Q in the ratio 1:1:1:1]; column 8 [null]; column 9 [V,L,I,P in the ratio 2:1:4:1]; and column 10 [null].
After these peptides were synthesized, they were screened with an anti-dynorphin B murine monoclonal antibody and then exposed to a fluorescently labeled goat anti-mouse antibody. […] Other strongly labeled regions, include column 7, row 1 and column 5, row 3, each of which contains some peptides having the above binding epitope. It should be noted that the varying ratios of some of the amino acids within a given group were necessary to obtain roughly equal binding efficiencies among the four amino acids.

Herz antibody = test: Array of sixteen amino acid sequences, relative binding to Herz antibody by fluorescence; design: species or system mouse; settings: FIG. 17
From the text: Using techniques similar to those set forth above, an array of 16 different amino acid sequences (replicated four times) was synthesized on each of two glass substrates. The sequences were synthesized by attaching the sequence NVOC-GFL across the entire surface of the slides. Using a series of masks, two layers of amino acids were then selectively applied to the substrate. Each region had dimensions of 0.25 cm×0.0625 cm. The first slide contained amino acid sequences containing only L amino acids while the second slide contained selected D amino acids. FIGS. 15A and 15B illustrate a map of the various regions on the first and second slides, respectively. The patterns shown in FIGS. 15A and 15B were duplicated four times on each slide. The slides were then exposed to the Herz antibody and fluorescein-labeled goat anti-mouse.
FIG. 16 is a fluorescence plot of the first slide, which contained only L amino acids. Light shading indicates strong binding (149,000 counts or more) while black indicates little or no binding of the Herz antibody (20,000 counts or less). The bottom right-hand portion of the slide appears “cut off” because the slide was broken during processing. […]
FIG. 17 is a fluorescence plot of the second slide. […]
Table 2 lists the various sequences tested in order of relative fluorescence, which provides information regarding relative binding affinity. […]

Substance | RELATIVE INTENSITY ([1]; mean ± spread over N synthesis sites) | RELATIVE INTENSITY, value in parentheses (ADJUSTED) ([1]; second value in parentheses) | fluorescence labeling of array region [2] | binding of Herz antibody, second slide (selected D amino acids) (Herz antibody)
RQFKVVT | 93.6 ± 10.0 | (96.2 ± 7.1) | brightest region | 
YpGFL: SEQ ID NO:24; lower case letters represent D-amino acids (Y[dP]GFL) |  |  |  | Significant binding
